“Also recorded” adds a separate entry of the source.
Legend:
[1] = Hygroscopicity test (VTI SGA-100, 25° C., 5 to 95% relative humidity); format: physicochemical; conditions: for hygroscopicity (in words): 5 to 95% relative humidity
Experimental: The measurement was carried out using “DVS” or “SGA-100”, under the conditions of temperature: 25° C., measurement range: 5 to 95% relative humidity, and measurement interval: 5% relative humidity.
For the measurement of hygroscopicity, “VTI SGA-100” was used under the conditions of temperature: 25° C., measurement range: 5 to 95% relative humidity, and measurement interval: 5% relative humidity.

[2] = Photo stability test (impurity by HPLC after 1.2 million lux-hours); format: physicochemical; conditions: after preservation under 1.2 million lux-hours of integrated luminance, 25° C.
Experimental: The amount of impurity was measured through HPLC using a preserved sample, under 1.2 million lux-hours (temperature: 25° C.) of integrated luminance, using a light stability testing device LTL-200D3J-15.
The amount of impurity was measured through HPLC using a preserved sample, under 1.2 million lux-hours (temperature: 25° C.) of integrated luminance, using a light stability testing device LTL-200D3J-15. • HPLC Conditions • Device: LC1100 (LC-5) manufactured by Agilent • Mobile phase: A: 0.01 mol/L, NaClO4 buffer (pH 2.5), B: MeCN • Flow rate: 0.2 mL/min • Column: Inertsil ODS-3 3 um (2.1 mm×100 mm) • Column temperature: 40° C. • Gradient condition: Bconc. 20 to 90% (0 to 18 min), 90% (18 to 23 min), 20% (23.1 to 33 min) • Injection volume: 1 μL • Autosampler temperature: 5° C. • Detection wavelength: 254 nm

Row | hygroscopicity (in words) [1] | Impurity Increase Amount (%) [2] | Impurity Increase Amount (%) ([2]; listed as α-form Crystal) | Impurity Increase Amount (%) ([2]; listed as β-form Crystal) | Impurity Increase Amount (%) ([2]; listed as γ-form Crystal) | relative humidity from which a drastic increase in weight is shown [1] | relative humidity from which hygroscopicity gradually starts [1] | moisture retained ([1]; at a relative humidity of about 95%) | Impurity Increase Amount (%) ([2]; listed as δ-form Crystal) | SMILES
1 | no hygroscopicity | 0.0% |  | 0.0% |  |  |  |  |  | CC(C)c1nnc(-c2ccc(-c3ccccc3)nc2)n1-c1cccc2nonc12 [β-form crystal, 4-[3-isopropyl-5-(6-phenyl-3-pyridyl)-4H-1,2,4-triazol-4-yl]-2,1,3-benzoxadiazole]
2 | no hygroscopicity | 0.0% |  |  | 0.0% |  |  |  |  | CC(C)c1nnc(-c2ccc(-c3ccccc3)nc2)n1-c1cccc2nonc12 [γ-form crystal, 4-[3-isopropyl-5-(6-phenyl-3-pyridyl)-1,2,4-triazol-4-yl]-2,1,3-benzoxadiazole]
3 |  | 1.0% |  |  |  | about 80% | about 50% | approximately 2% | 1.0% | CC(C)c1nnc(-c2ccc(-c3ccccc3)nc2)n1-c1cccc2nonc12 [δ-form crystal, 4-[3-isopropyl-5-(6-phenyl-3-pyridyl)-4H-1,2,4-triazol-4-yl]-2,1,3-benzoxadiazole, reference compound]

Row | SMILES | hygroscopicity (in words) [1] | Impurity Increase Amount (%) [2] | Impurity Increase Amount (%) ([2]; listed as α-form Crystal) | Impurity Increase Amount (%) ([2]; listed as β-form Crystal) | Impurity Increase Amount (%) ([2]; listed as γ-form Crystal) | relative humidity from which a drastic increase in weight is shown [1] | relative humidity from which hygroscopicity gradually starts [1] | moisture retained ([1]; at a relative humidity of about 95%) | Impurity Increase Amount (%) ([2]; listed as δ-form Crystal)
4 | CC(C)c1nnc(-c2ccc(-c3ccccc3)nc2)n1-c1cccc2nonc12 [α-form crystal, 4-[3-isopropyl-5-(6-phenyl-3-pyridyl)-4H-1,2,4-triazol-4-yl]-2,1,3-benzoxadiazole] | less than that of the known δ-form crystal; also recorded: relatively low hygroscopicity as compared to the known δ-form crystal | 0.0% | 0.0% |  |  |  |  |  | 

From patent US8278333B2, “Crystals of benzoxadiazole derivative” (Astellas Pharma Inc., priority 2006, dated 2012)
